Source: patent US9006487B2, “Amine-containing lipids and uses thereof” (Massachusetts Institute of Technology, priority 2005, dated 2015)
“And” between values parts separate entries of the source, which are not always exact repeats. Identical values can stand only once.

How the values were obtained:
Format in all cases: cell-based
[1] = test system: cos-7 cells; assay: DNA transfection: luciferase expression relative to Lipofectamine 2000; conditions: for luciferase expression (second part of table, values relative to LIPO2000): 300 ng of DNA per well; for Luciferase expression as a percentage of that achieved using Lipofectamine 2000: 300 ng Luciferase DNA per well; for Luciferase expression as a percentage of that achieved using Lipofectamine 2000 / % of the luciferase activity obtained from the use of Lipofectamine 2000: luciferase assay after 48 hours; for % of the luciferase activity obtained from the use of Lipofectamine 2000: 300 ng DNA per well
How it was run: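 cos-7 cells were transfected with 300 ng/well luciferase DNA complexed with lipid at ratios from 2.5 to 25 w/w. Bright-Glo luminescence was read after 48 hours and converted to ng luciferase by standard curve. Data are percent of the Lipofectamine 2000 control (2.5 w/w).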

[2] = test system: renilla and firefly luciferases; assay: siRNA delivery: reporter-protein (renilla luciferase) knockdown relative to Lipofectamine 2000, firefly luciferase as viability control; conditions: 50 ng of siRNA per well
Experimental: Reporter-protein knockdown achieved by the top transfecting lipids relative to Lipofectamine™ 2000 (where negative values indicate improved knockdown). The assay accounts for toxicity, monitoring expression of both renilla and firefly luciferases, where the latter serves as viability control. For each lipid, 50 ng of siRNA was added per well at specific lipid/RNA w/w ratios (from top to bottom: 2.5, 5, 10, 15).

[3] = DNA delivery: raw luciferase expression (relative light units) of best-transfecting lipids; conditions: 300 ng of DNA per well
Experimental: Raw values for luciferase expression (relative lights units) of best-transfecting lipids at lipid/DNA (w/w) ratios listed. 300 ng of DNA was added per well.

[4] = 1st column, no head printed (2.5 w/w by the raw values)
[5] = 2nd column, no head printed (5 w/w by the raw values)
[6] = 3rd column, no head printed (10 w/w by the raw values)
[7] = 4th column, no head printed (15 w/w by the raw values)

Row | Raw values for luciferase expression ([3]; lipid/DNA 10 w/w) [relative lights units] | Raw values for luciferase expression ([3]; lipid/DNA 15 w/w) [relative lights units] | Raw values for luciferase expression ([3]; lipid/DNA 5 w/w) | SMILES | luciferase expression (second part of table, values relative to LIPO2000) ([1]; lipid/DNA 2.5 w/w) | luciferase expression (second part of table, values relative to LIPO2000) ([1]; lipid/DNA 5 w/w) | luciferase expression (second part of table, values relative to LIPO2000) ([1]; lipid/DNA 10 w/w) | luciferase expression (second part of table, values relative to LIPO2000) ([1]; lipid/DNA 15 w/w) | luciferase expression (second part of table, values relative to LIPO2000) ([1]; lipid/DNA 20 w/w) | luciferase expression (second part of table, values relative to LIPO2000) ([1]; lipid/DNA 25 w/w) | luciferase expression, second set of columns (replicate set of data) [1, 4] | luciferase expression, second set of columns (replicate set of data) [1, 5] | luciferase expression, second set of columns (replicate set of data) [1, 6] | luciferase expression, second set of columns (replicate set of data) [1, 7] | Reporter-protein knockdown relative to Lipofectamine 2000 (negative values indicate improved knockdown) ([2]; lipid/RNA 2.5 w/w) | Reporter-protein knockdown relative to Lipofectamine 2000 (negative values indicate improved knockdown) ([2]; lipid/RNA 5 w/w) | Reporter-protein knockdown relative to Lipofectamine 2000 (negative values indicate improved knockdown) ([2]; lipid/RNA 10 w/w) | Reporter-protein knockdown relative to Lipofectamine 2000 (negative values indicate improved knockdown) ([2]; lipid/RNA 15 w/w) | Raw values for luciferase expression ([3]; lipid/DNA 2.5 w/w) | Luciferase expression as a percentage of that achieved using Lipofectamine 2000 ([1]; lipid/DNA 2.5 w/w) [%] | Luciferase expression as a percentage of that achieved using Lipofectamine 2000 ([1]; lipid/DNA 5 w/w) [%] | other results
1 | 1824773 | 643862 |  | CCCCCCCCCCCCNC(=O)CCN(CCC(=O)NCCCCCCCCCCCC)CCN(CCC(=O)NCCCCCCCCCCCC)CCN(CCC(=O)NCCCCCCCCCCCC)CCN(CCC(=O)NCCCCCCCCCCCC)CCC(=O)NCCCCCCCCCCCC [ND98] | 22.2 | 5.3 | 0.5 | 0.4 | 0.4 | 0.3 | 78.4 | 65.8 | 26.0 | 9.2 | −4.005 | −4.482 | −4.634 | −13.9514 | 5649897 relative lights units and 6947385 relative lights units |  |  | 
2 |  |  | 1972838 relative lights units | CCCCCCCCCCCCCCCNC(=O)CCN(CC)CCCN(CC)CCC(=O)NCCCCCCCCCCCCCCC [NG64] |  |  |  |  |  |  |  |  |  |  | −11.7697 | −34.6712 | 3.073 | 1.439 | 2585784 relative lights units |  |  | 
3 |  |  |  | CCCCCCCCCCCCOC(=O)CCN(CCOCCO)CCC(=O)OCCCCCCCCCCCC [LD31] | 44.2 | 38.7 | 18.8 | 11.3 | 42.8 | 174.1 |  |  |  |  | 15.3558 | −7.897 | −15.5821 | −16.8831 |  | 44.2 | 38.7 | Luciferase expression as a percentage of that achieved using Lipofectamine 2000 ([1]; lipid/DNA 10 w/w): 18.8%; Luciferase expression as a percentage of that achieved using Lipofectamine 2000 ([1]; lipid/DNA 15 w/w): 11.3%; Luciferase expression as a percentage of that achieved using Lipofectamine 2000 ([1]; lipid/DNA 20 w/w): 42.8%; Luciferase expression as a percentage of that achieved using Lipofectamine 2000 ([1]; lipid/DNA 25 w/w): 174.1%
4 | 7977064 | 10279185 | 4619654 relative lights units | CCCCCCCCCCCCNC(=O)CCN(C)CCN(CCC(=O)NCCCCCCCCCCCC)CCC(=O)NCCCCCCCCCCCC [ND95] | 11.3 | 30.9 | 37.6 | 53.4 | 37.8 | 54.0 |  |  |  |  | 19.8058 | 8.319 | −5.205 | −7.163 | 2875811 relative lights units |  |  | 
5 |  |  |  | CCCCCCCCCCCCNC(=O)CCN(CCCN(CCC(=O)NCCCCCCCCCCCC)CCC(=O)NCCCCCCCCCCCC)CCC(=O)NCCCCCCCCCCCC [ND100] | 45.7 | 48.0 | 20.8 | 2.7 |  |  | 62.6 | 37.4 | 2.5 | 0.6 | 10.88 | −7.546 | −21.4945 | −8.3303 |  |  |  | 
6 | 2048655 | 167043 |  | CCCCCCCCCCCCCCNC(=O)CCN(C)CCCN(CCC(=O)NCCCCCCCCCCCCCC)CCC(=O)NCCCCCCCCCCCCCC [NF96] | 221.5 | 44.3 | 0.2 | 0.1 |  |  | 79.4 | 40.8 | 29.2 | 2.4 | −6.262 | −2.035 | 63.2 | 90.8142 |  |  |  | 
7 |  |  |  | CCCCCCCCCCCCCCCOC(=O)CCN(CCC(=O)OCCCCCCCCCCCCCCC)CCC1CCCN1C (centres unmarked) [LG77] |  |  |  |  |  |  |  |  |  |  | 71.01 | −0.05414 | −7.721 | −21.3897 |  | 0.0 | 0.0 | % of the luciferase activity obtained from the use of Lipofectamine 2000 ([1]; 10 w/w lipid to DNA): 43.5%; % of the luciferase activity obtained from the use of Lipofectamine 2000 ([1]; 15 w/w lipid to DNA): 34.0%; Luciferase expression as a percentage of that achieved using Lipofectamine 2000 ([1]; lipid/DNA 20 w/w): 0.0%; Luciferase expression as a percentage of that achieved using Lipofectamine 2000 ([1]; lipid/DNA 25 w/w): 0.0%
8 |  |  |  | CCCCCCCCCCCCCCCOC(=O)CCN(CCO)CCN(CCC(=O)OCCCCCCCCCCCCCCC)CCC(=O)OCCCCCCCCCCCCCCC [LG109] |  |  |  |  |  |  |  |  |  |  | 55.7409 | 43.9 | −5.231 | −11.1255 |  | 16.3 | 36.0 | Luciferase expression as a percentage of that achieved using Lipofectamine 2000 ([1]; lipid/DNA 10 w/w): 23.4%; Luciferase expression as a percentage of that achieved using Lipofectamine 2000 ([1]; lipid/DNA 15 w/w): 37.9%; Luciferase expression as a percentage of that achieved using Lipofectamine 2000 ([1]; lipid/DNA 20 w/w): 25.7%; Luciferase expression as a percentage of that achieved using Lipofectamine 2000 ([1]; lipid/DNA 25 w/w): 34.5%

Row | SMILES | Raw values for luciferase expression ([3]; lipid/DNA 10 w/w) [relative lights units] | Raw values for luciferase expression ([3]; lipid/DNA 15 w/w) [relative lights units] | Raw values for luciferase expression ([3]; lipid/DNA 5 w/w) | luciferase expression (second part of table, values relative to LIPO2000) ([1]; lipid/DNA 2.5 w/w) | luciferase expression (second part of table, values relative to LIPO2000) ([1]; lipid/DNA 5 w/w) | luciferase expression (second part of table, values relative to LIPO2000) ([1]; lipid/DNA 10 w/w) | luciferase expression (second part of table, values relative to LIPO2000) ([1]; lipid/DNA 15 w/w) | luciferase expression (second part of table, values relative to LIPO2000) ([1]; lipid/DNA 20 w/w) | luciferase expression (second part of table, values relative to LIPO2000) ([1]; lipid/DNA 25 w/w) | luciferase expression, second set of columns (replicate set of data) [1, 4] | luciferase expression, second set of columns (replicate set of data) [1, 5] | luciferase expression, second set of columns (replicate set of data) [1, 6] | luciferase expression, second set of columns (replicate set of data) [1, 7] | Reporter-protein knockdown relative to Lipofectamine 2000 (negative values indicate improved knockdown) ([2]; lipid/RNA 2.5 w/w) | Reporter-protein knockdown relative to Lipofectamine 2000 (negative values indicate improved knockdown) ([2]; lipid/RNA 5 w/w) | Reporter-protein knockdown relative to Lipofectamine 2000 (negative values indicate improved knockdown) ([2]; lipid/RNA 10 w/w) | Reporter-protein knockdown relative to Lipofectamine 2000 (negative values indicate improved knockdown) ([2]; lipid/RNA 15 w/w) | Raw values for luciferase expression ([3]; lipid/DNA 2.5 w/w) | Luciferase expression as a percentage of that achieved using Lipofectamine 2000 ([1]; lipid/DNA 2.5 w/w) [%] | Luciferase expression as a percentage of that achieved using Lipofectamine 2000 ([1]; lipid/DNA 5 w/w) [%] | other results
9 | CCCCCCCCCCCCNC(=O)CCN(CCC(=O)NCCCCCCCCCCCC)CCN(CCC(=O)NCCCCCCCCCCCC)CCC(=O)NCCCCCCCCCCCC [ND99] |  |  | 9886021 relative lights units and 7656193 relative lights units | 16.8 | 36.5 | 78.6 | 91.7 |  |  | 132.7 | 97.5 | 6.8 | 2.2 | −10.1961 | −9.86 | −18.2728 | −20.0273 | 10252260 relative lights units and 11757295 relative lights units |  |  | 
